Measured values reported in patent US20100037353A1, “METHOD FOR IMPROVING ACTIVITY OF REACTIVE OXYGEN SPECIES SCAVENGING ENZYMES” (B Food Science Co., Ltd., priority 2007, published 2010).

Tests used:
[1] = tested on: Cu/Zn-type SODs and SOD Cu Chaperone genes; experiment: Transcriptomics with Arabidopsis thaliana DNA chip on root total RNA; assay type: in vivo; details: root of Arabidopsis thaliana grown on 2% sugar-containing MS medium with sugar alcohol at final concentration 0-2%
Text: (§1) The DNA microarray is a partial sequence of DNA arranged and fixed in a high-density manner on a slide glass which is divided into from several tens of thousands to hundreds of thousands. By using this, an expressed gene can be detected. Arabidopsis thaliana and a rat were used as model organisms. These organisms each was cultivated or bred with an arbitrary test substance and then an mRNA extracted from the cells of the cultivated or bred organism was hybridized with a target which is changed into cDNA with a reverse transcriptase. By carrying out this procedure, gene information expressed in the model organism was detected comprehensively, this procedure is so-called a transcriptomics. Furthermore, separation and purification of the protein of the ROS-scavenging enzyme in the model organisms' cells and determination of the enzyme activity were carried out, whereby the results obtained from the transcriptomics were directly verified. RNA was extracted from a root of the Arabidopsis thaliana grown by a culture medium which contains a MS culture medium composition having sucrose at a concentration of 2% and a series of test substances at a final concentration of 0-2% each. This extracted specimen was supplied to the DNA microarray. In addition, RNA was extracted from the hepatocytes of SD rat grown with feed which contains a control feed having cornstarch as the main ingredient and a sugar alcohol as a series of test substances at a final concentration of 0-10%. This extracted specimen was supplied to the DNA microarray in the same way as described above. The protein of the ROS-scavenging enzyme in the model organism cells was separated and purified using AKT Aexplorer (FPLC). SOD activity measurements were carried out according to a standard protocol using SOD Assay Kit-WST. Total RNA was extracted from the root of Arabidopsis thaliana grown by a culture medium containing a 2% sugar-containing MS culture medium composition and a series of sugar alcohols at a final concentration of 0-2% each. Transcriptomics was conducted using a Arabidopsis thaliana DNA chip (the number of loading genes: 30,480 genes, the number of probe/gene: 6, probe length: 60mer) of GeneFrontier Corporation.

[2] = tested on: Cu/Zn-type SODs and SOD Cu Chaperone genes; experiment: Transcriptomics with rat DNA chip on hepatocyte total RNA of fed rats; assay type: in vivo; details: hepatocytes of SD rats fed thirty days with feed containing sugar alcohol at final concentration 0-10%
Text: as §1, with “Kit-WST. Rats were fed for thirty days with a control diet containing 552.5 parts by weight of cornstarch, 250 parts by weight of casein, 35 parts by weight of mineral, 10 parts by weight of vitamin mixture, 2.5 parts by weight of choline bitartrate, 50 parts by weight of corn oil and 100 parts by weight of powdered cellulose, or feedstuffs containing the same composition as described in the control diet except that a portion of the powdered cellulose was replaced with the series of sugar alcohols so that the feedstuffs contain sugar alcohols at the final concentration of 0-10% each. The livers were taken out of the killed SD system rats and the total” for “Kit-WST. Total”, “the hepatocytes,” for “the root of Arabidopsis thaliana grown by a culture medium containing a 2% sugar-containing MS culture medium composition”, “and transcriptomics” for “and a series of sugar alcohols at a final concentration of 0-2% each. Transcriptomics”, “a rat” for “a Arabidopsis thaliana”, “genes: 21,205,” for “genes: 30,480 genes,”, “of probes per gene: 9,” for “of probe/gene: 6,”

SOD [3] = experiment: SOD activity of Arabidopsis thaliana root extract (SOD Assay Kit-WST); assay type: in vivo; details: root extract of Arabidopsis thaliana grown with sugar alcohol 0-2% (Example 1)
Text: RNA was extracted from a root of the Arabidopsis thaliana grown by a culture medium which contains a MS culture medium composition having sucrose at a concentration of 2% and a series of test substances at a final concentration of 0-2% each. This extracted specimen was supplied to the DNA microarray. In addition, RNA was extracted from the hepatocytes of SD rat grown with feed which contains a control feed having cornstarch as the main ingredient and a sugar alcohol as a series of test substances at a final concentration of 0-10%. This extracted specimen was supplied to the DNA microarray in the same way as described above. The protein of the ROS-scavenging enzyme in the model organism cells was separated and purified using AKT Aexplorer (FPLC). SOD activity measurements were carried out according to a standard protocol using SOD Assay Kit-WST. The roots of the Arabidopsis thaliana grown in Example 1 were crushed and water-extracted and then freeze-dried. Then each of the dried extract was dissolved in the buffer solution of 0.1M calcium phosphate to obtain a specimen. The SOD activity was determined according to a standard protocol using SOD Assay Kit-WST (Dojin Kagaku Kenkyu-Sho). […] In particular, the SOD activity of the erythritol-added group increased by 2-5 times.

SOD [4] = experiment: SOD activity of rat liver extract (SOD Assay Kit-WST); assay type: in vivo, SD rat; details: liver extract of rats fed thirty days with sugar alcohol 0-10% in feed (Example 2)
Text: RNA was extracted from a root of the Arabidopsis thaliana grown by a culture medium which contains a MS culture medium composition having sucrose at a concentration of 2% and a series of test substances at a final concentration of 0-2% each. This extracted specimen was supplied to the DNA microarray. In addition, RNA was extracted from the hepatocytes of SD rat grown with feed which contains a control feed having cornstarch as the main ingredient and a sugar alcohol as a series of test substances at a final concentration of 0-10%. This extracted specimen was supplied to the DNA microarray in the same way as described above. The protein of the ROS-scavenging enzyme in the model organism cells was separated and purified using AKT Aexplorer (FPLC). SOD activity measurements were carried out according to a standard protocol using SOD Assay Kit-WST. The livers of the rats fed in Example 2 each was crushed and then extracted with normal saline solution, and then freeze-dried. SOD activity was determined according to the same way as described in Example 3. […] In particular, the SOD activity of the erythritol-added group increased by 2 times.

OC[C@@H](O)[C@H](O)[C@@H](O)CO [xylitol]
expression of Cu/Zn-type SODs and SOD Cu Chaperone genes [1]: up-regulated | expression of Cu/Zn-type SODs and SOD Cu Chaperone genes [2]: up-regulated | SOD activity compared to the control group (SOD [3]): promotion of the SOD activity was seen | SOD activity compared to the control group (SOD [4]): promotion of the SOD activity was seen

OC[C@@H](O)[C@@H](O)CO [erythritol]
expression of Cu/Zn-type SODs and SOD Cu Chaperone genes [1]: up-regulated | expression of Cu/Zn-type SODs and SOD Cu Chaperone genes [2]: up-regulated | SOD activity compared to the control group (SOD [3]): promotion of the SOD activity was seen | increase of SOD activity compared to the control group (SOD [3]): 2-5 times | SOD activity compared to the control group (SOD [4]): promotion of the SOD activity was seen | increase of SOD activity compared to the control group (SOD [4]): 2 times

OC[C@@H](O)[C@@H](O)[C@H](O)[C@@H](O)CO [sorbitol]
expression of Cu/Zn-type SODs and SOD Cu Chaperone genes [1]: up-regulated | expression of Cu/Zn-type SODs and SOD Cu Chaperone genes [2]: up-regulated | SOD activity compared to the control group (SOD [3]): promotion of the SOD activity was seen | SOD activity compared to the control group (SOD [4]): promotion of the SOD activity was seen

OC[C@@H](O)[C@@H](O)[C@H](O)[C@H](O)CO [mannitol]
expression of Cu/Zn-type SODs and SOD Cu Chaperone genes [1]: up-regulated | expression of Cu/Zn-type SODs and SOD Cu Chaperone genes [2]: up-regulated | SOD activity compared to the control group (SOD [3]): promotion of the SOD activity was seen | SOD activity compared to the control group (SOD [4]): promotion of the SOD activity was seen
